{
  "source": "patent US10765114B2",
  "about": "“4-amino-6-(pyridyl and 2-substitutedphenyl)-picolinates and 6-amino-2-(pyridyl and 2-substitutedphenyl)-pyrimidine-4-carboxylates and their use as herbicides” (Dow AgroSciences LLC, priority 2013, dated 2020)",
  "data": [
    {"test_system": "Key Broadleaf Weed and Crop Species", "experiment": "Post-Emergent Test II (Table 5)", "format": "in vivo", "settings": "Abutilon theophrasti, post-emergence, 336 h, ABUTH: velvetleaf (Abutilon theophrasti), application rate 70 (kg ai/ha; footnote: g ai/ha), read-out: Visual Growth Reduction (%) 14 Days After Application ABUTH", "method": "(§1) Seeds or nutlets of the desired test plant species were planted in Sun Gro Metro-Mix® 360 planting mixture, which typically has a pH of 6.0 to 6.8 and an organic matter content of about 30 percent, in plastic pots with a surface area of 64 square centimeters. When required to ensure good germination and healthy plants, a fungicide treatment and/or other chemical or physical treatment was applied. The plants were grown for 7-21 days in a greenhouse with an approximate 15 h photoperiod which was maintained at about 23-29° C. during the day and 22-28° C. during the night. Nutrients and water were added on a regular basis and supplemental lighting was provided with overhead metal halide 1000-Watt lamps as necessary. The plants were employed for testing when they reached the first or second true leaf stage.\n(§2) A weighed amount, determined by the highest rate to be tested, of each test compound was placed in a 25 mL glass vial and was dissolved in 4 mL of a 97:3 v/v mixture of acetone and DMSO to obtain concentrated stock solutions. […] The concentrated stock solutions obtained were diluted with 20 mL of an aqueous mixture containing acetone, water, isopropyl alcohol, DMSO, Atplus 411F crop oil concentrate, and Triton® X-155 surfactant in a 48.5:39:10:1.5:1.0:0.02 v/v ratio to obtain spray solutions containing the highest application rates. Additional application rates were obtained by serial dilution of 12 mL of the high rate solution into a solution containing 2 mL of 97:3 v/v mixture of acetone and DMSO and 10 mL of an aqueous mixture containing acetone, water, isopropyl alcohol, DMSO, Atplus 411F crop oil concentrate, and Triton X-155 surfactant in a 48.5:39:10:1.5:1.0:0.02 v/v ratio to obtain ½×, ¼×, ⅛× and 1/16× rates of the high rate. Compound requirements are based upon a 12 mL application volume at a rate of 187 liters per hectare (L/ha). Formulated compounds were applied to the plant material with an overhead Mandel track sprayer equipped with 8002E nozzles calibrated to deliver 187 L/ha over an application area of 0.503 square meters at a spray height of 18 inches (43 cm) above the average plant canopy height. Control plants were sprayed in the same manner with the solvent blank.\n(§3) The treated plants and control plants were placed in a greenhouse as described above and watered by subirrigation to prevent wash-off of the test compounds. After 14 days, the condition of the test plants as compared with that of the untreated plants was determined visually and scored on a scale of 0 to 100 percent where 0 corresponds to no injury and 100 corresponds to complete kill and presented as indicated in Table A. Some of the compounds tested, application rates employed, plant species tested, and results are given in Table 5.", "units": {"pest or weed control at 70 g/ha": "%"}, "values": [
      {"molecule": "Nc1cc(-c2ccc(Cl)c(F)c2C(F)F)nc(C(=O)O)c1Cl", "note": "[Compound 13, 4-Amino-3-chloro-6-(4-chloro-2-(difluoromethyl)-3-fluorophenyl)picolinic acid]", "pest or weed control at 70 g/ha": "75 to 84"}
    ]},
    {"test_system": "Key Broadleaf Weed and Crop Species", "experiment": "Post-Emergent Test II (Table 5)", "format": "in vivo", "settings": "Abutilon theophrasti, post-emergence, 336 h, ABUTH: velvetleaf (Abutilon theophrasti), application rate 140 (kg ai/ha; footnote: g ai/ha), read-out: Visual Growth Reduction (%) 14 Days After Application ABUTH", "method": "as §1, §2, §3", "units": {"pest or weed control at 140 g/ha": "%"}, "values": [
      {"molecule": "Nc1cc(-c2ccc(Cl)c(F)c2C(F)F)nc(C(=O)O)c1Cl", "note": "[Compound 13, 4-Amino-3-chloro-6-(4-chloro-2-(difluoromethyl)-3-fluorophenyl)picolinic acid]", "pest or weed control at 140 g/ha": "0 to 29"}
    ]},
    {"test_system": "Key Broadleaf Weed and Crop Species", "experiment": "Post-Emergent Test II (Table 5)", "format": "in vivo", "settings": "Amaranthus retroflexus, post-emergence, 336 h, AMARE: redroot pigweed (Amaranthus retroflexus), application rate 70 (kg ai/ha; footnote: g ai/ha), read-out: Visual Growth Reduction (%) 14 Days After Application AMARE", "method": "as §1, §2, §3", "units": {"pest or weed control at 70 g/ha": "%"}, "values": [
      {"molecule": "Nc1cc(-c2ccc(Cl)c(F)c2C(F)F)nc(C(=O)O)c1Cl", "note": "[Compound 13, 4-Amino-3-chloro-6-(4-chloro-2-(difluoromethyl)-3-fluorophenyl)picolinic acid]", "pest or weed control at 70 g/ha": "95 to 100"}
    ]},
    {"test_system": "Key Broadleaf Weed and Crop Species", "experiment": "Post-Emergent Test II (Table 5)", "format": "in vivo", "settings": "Amaranthus retroflexus, post-emergence, 336 h, AMARE: redroot pigweed (Amaranthus retroflexus), application rate 140 (kg ai/ha; footnote: g ai/ha), read-out: Visual Growth Reduction (%) 14 Days After Application AMARE", "method": "as §1, §2, §3", "units": {"pest or weed control at 140 g/ha": "%"}, "values": [
      {"molecule": "Nc1cc(-c2ccc(Cl)c(F)c2C(F)F)nc(C(=O)O)c1Cl", "note": "[Compound 13, 4-Amino-3-chloro-6-(4-chloro-2-(difluoromethyl)-3-fluorophenyl)picolinic acid]", "pest or weed control at 140 g/ha": "95 to 100"}
    ]},
    {"test_system": "Key Broadleaf Weed and Crop Species", "experiment": "Post-Emergent Test II (Table 5)", "format": "in vivo", "settings": "Brassica napus, post-emergence, 336 h, BRSSS: oilseed rape, canola (Brassica napus), application rate 70 (kg ai/ha; footnote: g ai/ha), read-out: Visual Growth Reduction (%) 14 Days After Application BRSSS", "method": "as §1, §2, §3", "units": {"pest or weed control at 70 g/ha": "%"}, "values": [
      {"molecule": "Nc1cc(-c2ccc(Cl)c(F)c2C(F)F)nc(C(=O)O)c1Cl", "note": "[Compound 13, 4-Amino-3-chloro-6-(4-chloro-2-(difluoromethyl)-3-fluorophenyl)picolinic acid]", "pest or weed control at 70 g/ha": "85 to 94"}
    ]},
    {"test_system": "Key Broadleaf Weed and Crop Species", "experiment": "Post-Emergent Test II (Table 5)", "format": "in vivo", "settings": "Brassica napus, post-emergence, 336 h, BRSSS: oilseed rape, canola (Brassica napus), application rate 140 (kg ai/ha; footnote: g ai/ha), read-out: Visual Growth Reduction (%) 14 Days After Application BRSSS", "method": "as §1, §2, §3", "units": {"pest or weed control at 140 g/ha": "%"}, "values": [
      {"molecule": "Nc1cc(-c2ccc(Cl)c(F)c2C(F)F)nc(C(=O)O)c1Cl", "note": "[Compound 13, 4-Amino-3-chloro-6-(4-chloro-2-(difluoromethyl)-3-fluorophenyl)picolinic acid]", "pest or weed control at 140 g/ha": "85 to 94"}
    ]},
    {"test_system": "Key Broadleaf Weed and Crop Species", "experiment": "Post-Emergent Test II (Table 5)", "format": "in vivo", "settings": "Chenopodium album, post-emergence, 336 h, CHEAL: lambsquarters (Chenopodium album), application rate 70 (kg ai/ha; footnote: g ai/ha), read-out: Visual Growth Reduction (%) 14 Days After Application CHEAL", "method": "as §1, §2, §3", "units": {"pest or weed control at 70 g/ha": "%"}, "values": [
      {"molecule": "Nc1cc(-c2ccc(Cl)c(F)c2C(F)F)nc(C(=O)O)c1Cl", "note": "[Compound 13, 4-Amino-3-chloro-6-(4-chloro-2-(difluoromethyl)-3-fluorophenyl)picolinic acid]", "pest or weed control at 70 g/ha": "95 to 100"}
    ]},
    {"test_system": "Key Broadleaf Weed and Crop Species", "experiment": "Post-Emergent Test II (Table 5)", "format": "in vivo", "settings": "Chenopodium album, post-emergence, 336 h, CHEAL: lambsquarters (Chenopodium album), application rate 140 (kg ai/ha; footnote: g ai/ha), read-out: Visual Growth Reduction (%) 14 Days After Application CHEAL", "method": "as §1, §2, §3", "units": {"pest or weed control at 140 g/ha": "%"}, "values": [
      {"molecule": "Nc1cc(-c2ccc(Cl)c(F)c2C(F)F)nc(C(=O)O)c1Cl", "note": "[Compound 13, 4-Amino-3-chloro-6-(4-chloro-2-(difluoromethyl)-3-fluorophenyl)picolinic acid]", "pest or weed control at 140 g/ha": "95 to 100"}
    ]},
    {"test_system": "Key Broadleaf Weed and Crop Species", "experiment": "Post-Emergent Test II (Table 5)", "format": "in vivo", "settings": "Euphorbia heterophylla, post-emergence, 336 h, EPHHL: wild poinsettia (Euphorbia heterophylla), application rate 70 (kg ai/ha; footnote: g ai/ha), read-out: Visual Growth Reduction (%) 14 Days After Application EPHHL", "method": "as §1, §2, §3", "units": {"pest or weed control at 70 g/ha": "%"}, "values": [
      {"molecule": "Nc1cc(-c2ccc(Cl)c(F)c2C(F)F)nc(C(=O)O)c1Cl", "note": "[Compound 13, 4-Amino-3-chloro-6-(4-chloro-2-(difluoromethyl)-3-fluorophenyl)picolinic acid]", "pest or weed control at 70 g/ha": "0 to 29"}
    ]},
    {"test_system": "Key Broadleaf Weed and Crop Species", "experiment": "Post-Emergent Test II (Table 5)", "format": "in vivo", "settings": "Euphorbia heterophylla, post-emergence, 336 h, EPHHL: wild poinsettia (Euphorbia heterophylla), application rate 140 (kg ai/ha; footnote: g ai/ha), read-out: Visual Growth Reduction (%) 14 Days After Application EPHHL", "method": "as §1, §2, §3", "units": {"pest or weed control at 140 g/ha": "%"}, "values": [
      {"molecule": "Nc1cc(-c2ccc(Cl)c(F)c2C(F)F)nc(C(=O)O)c1Cl", "note": "[Compound 13, 4-Amino-3-chloro-6-(4-chloro-2-(difluoromethyl)-3-fluorophenyl)picolinic acid]", "pest or weed control at 140 g/ha": "0 to 29"}
    ]},
    {"test_system": "Key Broadleaf Weed and Crop Species", "experiment": "Post-Emergent Test II (Table 5)", "format": "in vivo", "settings": "Helianthus annuus, post-emergence, 336 h, HELAN: sunflower (Helianthus annuus), application rate 70 (kg ai/ha; footnote: g ai/ha), read-out: Visual Growth Reduction (%) 14 Days After Application HELAN", "method": "as §1, §2, §3", "units": {"pest or weed control at 70 g/ha": "%"}, "values": [
      {"molecule": "Nc1cc(-c2ccc(Cl)c(F)c2C(F)F)nc(C(=O)O)c1Cl", "note": "[Compound 13, 4-Amino-3-chloro-6-(4-chloro-2-(difluoromethyl)-3-fluorophenyl)picolinic acid]", "pest or weed control at 70 g/ha": "85 to 94"}
    ]},
    {"test_system": "Key Broadleaf Weed and Crop Species", "experiment": "Post-Emergent Test II (Table 5)", "format": "in vivo", "settings": "Helianthus annuus, post-emergence, 336 h, HELAN: sunflower (Helianthus annuus), application rate 140 (kg ai/ha; footnote: g ai/ha), read-out: Visual Growth Reduction (%) 14 Days After Application HELAN", "method": "as §1, §2, §3", "units": {"pest or weed control at 140 g/ha": "%"}, "values": [
      {"molecule": "Nc1cc(-c2ccc(Cl)c(F)c2C(F)F)nc(C(=O)O)c1Cl", "note": "[Compound 13, 4-Amino-3-chloro-6-(4-chloro-2-(difluoromethyl)-3-fluorophenyl)picolinic acid]", "pest or weed control at 140 g/ha": "85 to 94"}
    ]},
    {"test_system": "Key Broadleaf Weed and Crop Species", "experiment": "Post-Emergent Test II (Table 5)", "format": "in vivo", "settings": "Viola tricolor, post-emergence, 336 h, VIOTR: wild pansy (Viola tricolor), application rate 70 (kg ai/ha; footnote: g ai/ha), read-out: Visual Growth Reduction (%) 14 Days After Application VIOTR", "method": "as §1, §2, §3", "units": {"pest or weed control at 70 g/ha": "%"}, "values": [
      {"molecule": "Nc1cc(-c2ccc(Cl)c(F)c2C(F)F)nc(C(=O)O)c1Cl", "note": "[Compound 13, 4-Amino-3-chloro-6-(4-chloro-2-(difluoromethyl)-3-fluorophenyl)picolinic acid]", "pest or weed control at 70 g/ha": "0 to 29"}
    ]},
    {"test_system": "Key Broadleaf Weed and Crop Species", "experiment": "Post-Emergent Test II (Table 5)", "format": "in vivo", "settings": "Viola tricolor, post-emergence, 336 h, VIOTR: wild pansy (Viola tricolor), application rate 140 (kg ai/ha; footnote: g ai/ha), read-out: Visual Growth Reduction (%) 14 Days After Application VIOTR", "method": "as §1, §2, §3", "units": {"pest or weed control at 140 g/ha": "%"}, "values": [
      {"molecule": "Nc1cc(-c2ccc(Cl)c(F)c2C(F)F)nc(C(=O)O)c1Cl", "note": "[Compound 13, 4-Amino-3-chloro-6-(4-chloro-2-(difluoromethyl)-3-fluorophenyl)picolinic acid]", "pest or weed control at 140 g/ha": "0 to 29"}
    ]},
    {"test_system": "Key Grass and Sedge Weeds as well as Grass Crops", "experiment": "Post-Emergent Test II (Table 6)", "format": "in vivo", "settings": "CYPSS (CYPES: yellow nutsedge, Cyperus esculentus), 70 g ai/ha", "method": "as §1, §2, §3", "values": [
      {"molecule": "Nc1cc(-c2ccc(Cl)c(F)c2C(F)F)nc(C(=O)O)c1Cl", "note": "[Compound 13, 4-Amino-3-chloro-6-(4-chloro-2-(difluoromethyl)-3-fluorophenyl)picolinic acid]", "Visual Growth Reduction (%) 14 Days After Application, CYPSS": "G (0-29)"}
    ]}
  ]
}
